From PubChem BioAssay (NCI)
Several values for one entry are separate records, joined by “and”; a condition that tells them apart may be missing. Equal values may be shown once.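 Following 48 hours of exposure in 96-well plates, responses at five concentrations were used to interpolate endpoints linearly. GI50: concentration for 50% inhibition of growth. TGI denotes the concentration required for complete inhibition of growth.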

Tests used:
Test in all cases: NCI-60 cell line screen, 48 h
[1] = test system: SN12C renal
[2] = test system: MOLT-4 leukemia
[3] = test system: SK-OV-3 ovarian
[4] = test system: IGROV1 ovarian
[5] = test system: SK-MEL-28 melanoma
[6] = test system: M14 melanoma
[7] = test system: BT-549 breast
[8] = test system: MCF7 breast
[9] = test system: SW-620 colon
[10] = test system: HCT-15 colon

Row | SMILES | TGI [1] | TGI [2] | TGI [3] [µM] | TGI [4] [µM] | TGI [5] [µM] | TGI [6] [µM] | TGI [7] [µM] | TGI [8] [µM] | TGI [9] | TGI [10] [µM] | GI50 [1] [µM] | GI50 [2] | GI50 [3] [µM] | GI50 [4] [µM] | GI50 [5] [µM] | GI50 [6] [µM] | GI50 [7] [µM] | GI50 [8] [µM] | GI50 [9] [µM] | GI50 [10] [µM]
1 | O=C(O)C(=Cc1ccnc2ccccc12)C(=O)O | > 100 µM | > 100 µM | > 100 | > 100 | > 100 | > 100 | > 100 | > 100 | > 100 µM | > 100 |  |  |  |  |  |  |  |  |  | 
2 | O=Cc1c(-c2cc(O)ccc2O)nc2sccn12 | 34.5 µM | 11.5 µM | > 100 | 29.5 | 96.6 | 30.1 | 48.8 | > 100 | > 100 µM | 39.3 | 12.8 | 2.52 µM | 78.5 | 9.04 | 23.8 | 13.8 | 18 | 14.3 | 25.3 | 12.5
3 | C[C@]12CCC3[C@@H](C[C@@H]4SC(Nc5ccccc5)=N[C@@]45CC(=O)CC[C@]35C)[C@@H]1CCC2=O (some centres undefined) | 25.3 µM | > 100 µM | > 100 | > 100 | > 100 | 50.9 | 38.9 | 32.8 | 15.6 µM | 9.71 | 3.81 | 2.84 µM | 34 | 8.21 | 20.5 | 7.88 | 4.58 | 3.58 | 3.38 | 2.53
4 | COc1ccc(/C=C/C(=O)c2cc3c(N)c(C(=O)Nc4ccccc4Cl)sc3nc2C)cc1 | > 50 µM | > 50 µM | 19 | > 50 |  | > 50 | 32 | 22 | > 50 µM | > 50 | 3.78 | 4.59 µM | 3.58 | 2.72 |  | 0.481 | 7.24 | 0.25 | 3.39 | 2.96
5 | Cc1c(N=Nc2ccc([N+](=O)[O-])cc2)nc2scc(-c3ccccc3)n12 | > 100 µM | > 100 µM | > 100 | > 100 | > 100 | > 100 | > 100 | > 100 | > 100 µM | > 92.2 |  |  |  |  |  |  |  |  |  | 
6 | OCc1cn(Cc2cccc(Cl)c2)c2ccccc12 | 42.6 µM | 44.4 µM | 47.4 | 0.507 | 60.9 | 29.6 | 23.1 | 27.8 | 33.3 µM | 43.8 | 12 | 10.6 µM | 4.42 | < 0.0271 | 20.5 | 11.3 | 6.75 | 0.0488 | 0.586 | 5.79
7 | OCCCCC#Cc1ccccc1C#Cc1ccccc1 | 27.8 µM | 63.8 µM | 26.7 | > 100 | 41.6 | 22.9 | 25.9 | 48.1 | 34.4 µM | 24.2 | 13.5 | 17.8 µM | 10.7 | 30.9 | 17 | 10.1 | 11.6 | 21 | 15.7 | 11.7
8 | N[C@@H](Cc1c[nH]c2ccccc12)C(=O)NC1CCN(C(=O)c2c[nH]c3ccccc23)CC1 | > 100 µM | > 100 µM | > 100 | > 100 | > 100 | > 100 | > 100 | > 100 | > 100 µM | > 100 | > 100 | 63.5 µM | 90.5 | 64.2 | > 100 | > 100 | > 100 | > 100 | > 100 | > 100
9 | COc1c(O)c2c(c3cc(C(=O)N4CCc5c4c(O)c(OC)c4[nH]c(C(=O)N6CC7CC78C6=CC(=O)c6[nH]cc(C)c68)cc54)[nH]c13)CCN2C(N)=O (centres undefined) | 5.75 nM and 3.41 µM and 0.103 µg/mL | 456 nM and 0.0737 µg/mL |  | > 100 |  |  | 5.01 | 0.397 | 3.46 nM and 456 nM and 0.0038 µg/mL |  |  | 6.42 ng/mL |  | 10.8 | 0.354 | 0.172 |  |  |  | 0.157
10 | COP(=O)(OC)C(NC(c1ccccc1)c1ccccc1)c1ccc2c(c1)OCO2 (centres undefined) | 53.8 µM | 29.4 µM | > 100 | 73.6 | 44.8 | 61.3 | 38.8 | 79 | > 100 µM | 95.1 | 24 | 7.85 µM | 40.7 | 22 | 21.5 | 23.1 | 20.6 | 26 | 31.7 | 30.1
11 | C1CC[N-]CC1.C1CC[N-]CC1.C1CC[N-]CC1.C1CC[N-]CC1.[Cl][Rh][Cl] | > 100 µM | > 100 µM | > 100 | 76.8 | 21.6 | > 100 | 19.3 | > 100 | > 100 µM | > 100 | 1.4 | 13.7 µM | 14.8 | 7.85 | 3.36 | 6.26 | 5.6 | 10.2 | 6.12 | 41.2
12 | CC12CCC3C(CC=C4CC(O)CCC43C)C1C/C(=C\N1CCCC1)C2=O (centres undefined) | > 100 µM | > 100 µM | > 100 | > 100 | > 100 | > 100 | > 100 | > 100 | > 100 µM | > 100 | 85 | > 100 µM | > 100 | 51.8 | > 100 | > 100 | 41 | > 100 | > 100 | 87.1
